Data set [1] can be described thus: Solubility in D2O by 1H NMR (Me2SO2 internal standard). The settings on record: for Solubility: 21 °C. The class given is physicochemical. As for the experimental part:
(§1) • (a) Solubility in D2O. A suspension of the selected diiron compound (3–5 mg) in a D2O solution (ca. 1 mL) containing Me2SO2 (3.36 × 10^−3 M) as internal standard was vigorously stirred at 21 °C for 1.5 h. The resulting saturated solution was filtered over celite, transferred into an NMR tube and then analyzed by ^1H NMR spectroscopy (delay time = 3 s; number of scans = 20). The concentration (solubility) was calculated by the relative integral (related to Cp and/or NMe signals) with respect to Me2SO2 (δ = 3.14 ppm). • (b) Stability in DMSO-d6/D2O solution. The selected diiron compound (ca. 4 mg) was added of 1 mL of D2O (3a,c) or DMSO-d6/D2O (2:1 v/v) mixture (2a,c, 3b, 4a–c, 5a–c, 6a–c, 7), containing Me2SO2 (3.36 × 10^−3 M). The resulting mixture was stirred for 30 min and then filtered over celite; the filtrated solution was transferred into an NMR tube. The sample was analyzed by ^1H NMR (time = 0) and then heated at 37 °C for 72 h. After cooling to room temperature, the solution was separated from a small amount of solid by filtration over celite, and the new ^1H NMR spectrum was recorded (delay time = 3 s; number of scans = 20). In every case, no newly formed organometallic species was detected. The amount of starting material in solution (% with respect to the initial spectrum) was calculated by the relative integral (vs. Cp and/or NMe signals) with respect to Me2SO2 as internal standard.

The nature of data set [2]: Stability in DMSO-d6/D2O or D2O solution at 37 °C for 72 h (1H NMR). The class given is physicochemical. The following applies: DMSO-d6/D2O (2:1 v/v), 72 h at 37 °C. As to the method: as §1
Data set [3] in a line: Octanol–water partition coefficient (shake-flask, UV–Vis). The class given is physicochemical. The settings on record: 21 °C. As for the experimental part: • (c) Octanol–water partition coefficients (Log Pow). Partition coefficients (Pow; IUPAC: KD partition constant), defined as Pow = corg/caq, where corg and caq are molar concentrations of the selected compound in the organic and aqueous phase, respectively, were determined by the shake-flask method and UV–Vis measurements. Deionized water and 1-octanol were vigorously stirred for 24 h to enable saturation of both phases, then separated by centrifugation. A stock solution of the selected diiron compound (ca. 2 mg; 2a–c, 3b, 4a–c, 5a, 5c, 6b,c, 7) was prepared by first adding acetone (50 μL, to help solubilization), followed by water-saturated octanol (2.5 mL). The solution was diluted with water-saturated octanol (ca. 1:3 v/v ratio, cFe2 ≈ 10^−4 M, so that 1.5 ≤ A ≤ 2.0 at λmax) and the UV–Vis spectrum was recorded (A^0org). An aliquot of the solution (Vorg = 1.2 mL) was transferred into a test tube and octanol-saturated water (Vorg = Vaq = 1.2 mL) was added. The mixture was vigorously stirred for 15 min at 21 °C and then centrifuged (5000 rpm, 10 min). The UV–Vis spectrum of the organic phase was recorded (A^forg) and the partition coefficient was calculated as Pow = A^forg/(A^0org − A^forg), where A^0org and A^forg are the absorbance in the organic phase before and after partition with the aqueous phase, respectively. An inverse procedure was followed for 3a, 3c, 5b and 6a, starting from a solution of the compound in octanol-saturated water. The partition coefficient was calculated as Pow = (A^0aq − A^faq)/A^faq where A^0aq and A^faq are the absorbance in the aqueous phase before and after partition with the organic phase, respectively. The wavelength of the maximum absorption of each compound (ca. 300 nm) was used for UV–Vis quantitation. The procedure was repeated three times for each sample (from the same stock solution); results are given as mean ± standard deviation.

The subject of data set [4] is human ovarian carcinoma cisplatin-sensitive A2780. Nature of the data set: Cytotoxicity, WST-1 cell viability assay, A2780. The format is cell-based. The settings on record: for IC50: 72 h exposure; for Selectivity index (S.I.): ratio between IC50 for Balb/3T3 and IC50 for A2780. As for the experimental part: (§2) In vitro cytotoxicity investigations were carried out by using human ovarian carcinoma cisplatin-sensitive A2780 (ECACC93112519), human ovarian carcinoma cisplatin-resistant A2780cisR (ECACC 93112517) and mouse embryo fibroblasts Balb/3T3 clone A31 (ATCC CCL-163) cell lines. A2780 and A2780cisR were purchased from the European Collection of Authenticated Cell Cultures (ECACC), and Balb/3T3 clone A31 cell line from the American Type Culture Collection (ATCC).
(§3) A2780 and A2780cisR cells were routinely cultured in RPMI 1640 (Merck) containing 2 mM of L-glutamine (Merck), 1% of penicillin/streptomycin solution (Merck—10 000 U mL^−1: 10 mg mL^−1), 10% of fetal bovine serum (Merck—FBS) and antimycotic (InvivoGen, USA), and Balb/3T3 clone A31 in Dulbecco’s modified Eagle medium (Merck—DMEM) supplemented with 4 mM of L-glutamine, 1% of penicillin/streptomycin solution, 10% of calf serum (Merck) and antimycotic. […] The cultures were maintained at 37 °C and in a 5% CO2-enriched atmosphere.
(§4) A2780, A2780cisR and Balb/3T3 clone A31 cells were seeded in 96-well tissue culture polystyrene plates at a concentration of 3 × 10^3, 6 × 10^3 and 1 × 10^3 cells per well, respectively. After overnight incubation, the cells were treated with different concentrations (0–100 µM) of the selected compounds for 72 h at 37 °C in a 5% atmosphere of CO2. Stock solutions of compounds were prepared in DMSO and sequentially diluted in medium (final DMSO concentration of 0.5%). […] At the end of the incubation time, cell viability was assessed by means of WST-1 tetrazolium salt reagent (Roche). Briefly, cells were incubated for 4 h with the tetrazolium salt reagent diluted 1:10, at 37 °C and 5% CO2. Measurements of formazan dye absorbance, which directly correlates with the number of viable cells, were carried out with a micro-plate reader (Biorad) at 450 nm, using 655 nm as reference wavelength. The 50% inhibitory concentration (IC50) refers to compound concentration at which 50% of cell death is observed with respect to the control. For each tested compound, assay was performed on triplicate. The concentration effect curves were generated by nonlinear regression curves (GraphPad Prism Software, 2021) and the data reported as mean ± standard deviation.

In data set [5] the test system is mouse embryo fibroblasts Balb/3T3 clone A31. Briefly: Cytotoxicity, WST-1 cell viability assay, Balb/3T3 clone A31. The class given is cell-based. The following applies: 72 h exposure. As to the method:
as §2, §3, §4

Values joined by “and” are separate entries in the source; they are usually repeats but may differ in a detail not shown here. Equal values may be shown once.

Turning to “[Fe2Cp2(CO)(μ-CO){μ-η^1:η^3-C^3(Me)C^2(Me)C^1NMe(Cy)}]CF3SO3 [Compound 4c]”, the Solubility in data set [1] was 2.63 × 10^−3 mol·L^−1 and 1.64 g·L^−1. For the same substance, in data set [2], the “Stability % (residual % of starting material)” value is recorded as 95%. Besides, the “Log Pow” value in data set [3] is −0.17 ± 0.01. Also, the IC50 was 1.8 ± 0.2 µM in data set [4] and 94 ± 16 µM in data set [5]. For the same substance, the “Selectivity index (S.I.)” value in data set [4] was determined as 52.
For the substance “[Fe2Cp2(CO)(μ-CO){μ-η^1:η^3-C^3(Me)C^2(Me)C^1N(CH2Ph)2}]CF3SO3 [Compound 2c]”, in data set [1], the “Solubility in D2O (in words)” value is on record as “almost insoluble in D2O”. In addition, the “Stability % (residual % of starting material)” value in data set [2] came out at 87%. Further, in data set [3], the “Log Pow” value is listed as 0.56 ± 0.08. For the same substance, in data set [4], half-maximal inhibition (IC50) required 1.91 ± 0.15 µM and the “Selectivity index (S.I.)” value was found to be 9. In data set [5], this substance showed an IC50 of 18 ± 3 µM.
As for “[Fe2Cp2(CO)(μ-CO){μ-η^1:η^3-C^3(Me)C^2(Me)C^1NMe(CH2Ph)}]CF3SO3 [Compound 5b]”, the Solubility in data set [1] is 1.52 × 10^−3 mol·L^−1 and 0.96 g·L^−1. Besides, the “Stability % (residual % of starting material)” value in data set [2] was 90%. The “Log Pow” value in data set [3] is recorded as −0.43 ± 0.01. Also, in data set [4], the midpoint of inhibition, the IC50, lay at 5.1 ± 0.3 µM and the “Selectivity index (S.I.)” value was greater than 19. For the same substance, the IC50 in data set [5] was greater than 100 µM.
On to “[Fe2Cp2(CO)(μ-CO){μ-η^1:η^3-C^3(Me)C^2(Me)C^1NMe(2-naphthyl)}]CF3SO3 [Compound 7]”, for which the “Solubility in D2O (in words)” value in data set [1] is given as “almost insoluble in D2O”. The “Stability % (residual % of starting material)” value in data set [2] was 66%. Further, in data set [3], the “Log Pow” value is listed as 0.38 ± 0.02. Moreover, in data set [4], the IC50 was found to be 2.2 ± 0.2 µM and the “Selectivity index (S.I.)” value is recorded as 22. 48 ± 3 µM corresponded to half-maximal inhibition in data set [5] (IC50).
Consider “[Fe2Cp2(CO)(μ-CO){μ-η^1:η^3-C^3(Me)C^2HC^1NMe(Cy)}]CF3SO3 [Compound 4a]”, for which the Solubility in data set [1] is 3.49 × 10^−3 mol·L^−1 and 2.13 g·L^−1. For the same substance, in data set [2], the “Stability % (residual % of starting material)” value stood at 95%. Also, in data set [3], the “Log Pow” value is recorded as −0.29 ± 0.03. In data set [4], the IC50 was determined as 3.3 ± 0.4 µM and the “Selectivity index (S.I.)” value is greater than 30. In data set [5], this substance came in with an IC50 greater than 100 µM.
With “[Fe2Cp2(CO)(μ-CO){μ-η^1:η^3-C^3(Ph)C^2HC^1NMe(4-C6H4OMe)}]CF3SO3 [Compound 6b]”, the “Stability % (residual % of starting material)” value in data set [2] amounted to 76%. The “Log Pow” value in data set [3] came out at 0.37 ± 0.04. Also, in data set [4], the IC50 was found to be 3.8 ± 0.4 µM and the “Selectivity index (S.I.)” value is on record as 10. In addition, the midpoint of inhibition in data set [5], the IC50, lay at 39 ± 3 µM.
Take “[Fe2Cp2(CO)(μ-CO){μ-η^1:η^3-C^3(Ph)C^2HC^1NMe(CH2CH = CH2)}]CF3SO3 [Compound 3b]”: the Solubility in data set [1] is 2.34 × 10^−3 mol·L^−1 and 1.48 g·L^−1. Also, the “Stability % (residual % of starting material)” value in data set [2] amounted to 68%. In addition, the “Log Pow” value in data set [3] is on record as −0.09 ± 0.01. Besides, the IC50 in data set [4] was 6 ± 0.8 µM; in data set [5] it was greater than 100 µM. Besides, in data set [4], the “Selectivity index (S.I.)” value was greater than 16.
In the case of “[Fe2Cp2(CO)(μ-CO){μ-η^1:η^3-C^3(Me)C^2(Me)C^1NMe(4-C6H4OMe)}]CF3SO3 [Compound 6c]”, the Solubility in data set [1] is 1.06 × 10^−3 mol·L^−1 and 0.69 g·L^−1. Besides, the “Stability % (residual % of starting material)” value in data set [2] was found to be 86%. For the same substance, the “Log Pow” value in data set [3] is on record as −0.21 ± 0.01. For the same substance, in data set [4], 3.8 ± 0.4 µM corresponded to half-maximal inhibition (IC50) and the “Selectivity index (S.I.)” value is given as greater than 26. Moreover, the IC50 in data set [5] was greater than 100 µM.

The values are drawn from publication PMC8398472, “Anticancer Diiron Vinyliminium Complexes: A Structure–Activity Relationship Study” (Pharmaceutics, 2021).
